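Where inhibition never reached the appropriate level, the endpoint shown equals the highest concentration tested. Otherwise, values were interpolated linearly from a five-concentration, 48-hour dose response in 96-well plates. GI50 marks 50% less growth. TGI marks complete inhibition of growth.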
Columns and labels:
Assay in all cases: growth of human tumour cells (NCI), 48 h
[1] = test system: 786-0 renal
[2] = test system: A498 renal
[3] = test system: ACHN renal
[4] = test system: BT-549 breast
[5] = test system: CAKI-1 renal
[6] = test system: COLO 205 colon
[7] = test system: DU-145 prostate
[8] = test system: EKVX NSCLC
[9] = test system: HCT-116 colon
[10] = test system: HCT-15 colon
[11] = test system: HOP-62 NSCLC
[12] = test system: HS 578T breast
[13] = test system: K-562 leukemia
[14] = test system: MALME-3M melanoma
[15] = test system: MDA-MB-231 breast
[16] = test system: MDA-N
[17] = test system: NCI-H226 lung
[18] = test system: NCI/ADR-RES ovarian
[19] = test system: OVCAR-3 ovarian
[20] = test system: OVCAR-4 ovarian
[21] = test system: OVCAR-5 ovarian
[22] = test system: OVCAR-8 ovarian
[23] = test system: PC-3 prostate
[24] = test system: SF-295 CNS
[25] = test system: SK-MEL-28 melanoma
[26] = test system: SK-OV-3 ovarian
[27] = test system: SN12C renal
[28] = test system: SNB-75 CNS
[29] = test system: TK-10 renal
[30] = test system: UACC-257 melanoma
[31] = test system: UO-31 renal
[32] = test system: A549 NSCLC
[33] = test system: CCRF-CEM leukemia
[34] = test system: HCC-2998 colon
[35] = test system: HL-60(TB) leukemia
[36] = test system: HOP-92 NSCLC
[37] = test system: HT29 colon
[38] = test system: IGROV1 ovarian
[39] = test system: KM12 colon
[40] = test system: LOX IMVI melanoma
[41] = test system: M14 melanoma
[42] = test system: MCF7 breast
[43] = test system: MDA-MB-435
[44] = test system: MOLT-4 leukemia
[45] = test system: NCI-H23 lung
[46] = test system: NCI-H460 lung
[47] = test system: NCI-H522 lung
[48] = test system: RPMI-8226 leukemia
[49] = test system: RXF 393 renal
[50] = test system: SF-268 CNS
[51] = test system: SF-539 CNS
[52] = test system: SK-MEL-2 melanoma
[53] = test system: SK-MEL-5 melanoma
[54] = test system: SNB-19 CNS
[55] = test system: SR leukemia
[56] = test system: SW-620 colon
[57] = test system: T-47D breast
[58] = test system: U251 CNS
[59] = test system: UACC-62 melanoma

NCC(O)CNCC/C=C\C/C=C\C/C=C\C/C=C\C/C=C\C/C=C\CCCCC/C=C\CCNCC(O)CN (configuration not stated)
TGI [1]: 3.07 µM
TGI [2]: 3.34 µM
TGI [3]: 3.35 µM
TGI [4]: 7.47 µM
TGI [5]: 3.63 µM
TGI [6]: 3.41 µM
TGI [7]: 3.26 µM
TGI [8]: 2150 nM
TGI [9]: 3.18 µM
TGI [10]: 3.03 µM
TGI [11]: 3.53 µM
TGI [12]: 2740 nM
TGI [13]: > 100 µM
TGI [14]: 4.34 µM
TGI [15]: 3.18 µM
TGI [16]: 3.09 µM
TGI [17]: 13.4 µM
TGI [18]: 2820 nM
TGI [19]: 3.42 µM
TGI [20]: 3.61 µM
TGI [21]: 3.41 µM
TGI [22]: 3.21 µM
TGI [23]: 3.49 µM
TGI [24]: 4.29 µM
TGI [25]: 14 µM
TGI [26]: 5.59 µM
TGI [27]: 3.03 µM
TGI [28]: 3.2 µM
TGI [29]: 2960 nM
TGI [30]: 4.43 µM
TGI [31]: 3.72 µM

O/N=C1\CCc2cc(-c3nc(C4CCNCC4)[nH]c3-c3ccncc3)ccc21
GI50 [1]: > 25 µM
TGI [1]: > 25 µM
GI50 [2]: > 25 µM
TGI [2]: > 25 µM
GI50 [32]: > 25 µM
TGI [32]: > 25 µM
GI50 [3]: > 25 µM
TGI [3]: > 25 µM
GI50 [4]: > 25 µM
TGI [4]: > 25 µM
GI50 [5]: > 25 µM
TGI [5]: > 25 µM
GI50 [33]: > 25 µM
TGI [33]: > 25 µM
GI50 [6]: 2780 nM
TGI [6]: > 25 µM
GI50 [7]: > 25 µM
TGI [7]: > 25 µM
GI50 [8]: > 25 µM
TGI [8]: > 25000 nM
GI50 [34]: > 25 µM
TGI [34]: > 25 µM
GI50 [9]: > 25 µM
TGI [9]: > 25 µM
GI50 [10]: > 25 µM
TGI [10]: > 25 µM
GI50 [35]: > 25 µM
TGI [35]: > 25 µM
GI50 [11]: > 25 µM
TGI [11]: > 25 µM
GI50 [36]: > 25 µM
TGI [36]: > 25 µM
GI50 [12]: > 25 µM
TGI [12]: > 25000 nM
GI50 [37]: > 16.4 µM
TGI [37]: > 25 µM
GI50 [38]: > 25 µM
TGI [38]: > 25 µM
GI50 [13]: > 25 µM
TGI [13]: > 25 µM
GI50 [39]: > 25 µM
TGI [39]: > 25 µM
GI50 [40]: > 25 µM
TGI [40]: > 25 µM
GI50 [41]: 7.57 µM
TGI [41]: > 25 µM
GI50 [14]: 3.02 µM
TGI [14]: 12.3 µM
GI50 [42]: > 25 µM
TGI [42]: > 25 µM
GI50 [15]: > 25 µM
TGI [15]: > 25 µM
GI50 [43]: 12.1 µM
TGI [43]: > 25 µM
GI50 [44]: > 25 µM
TGI [44]: > 25 µM
GI50 [17]: > 25 µM
TGI [17]: > 25 µM
GI50 [45]: > 25 µM
TGI [45]: > 25 µM
GI50 [46]: > 25 µM
TGI [46]: > 25 µM
GI50 [47]: > 25 µM
TGI [47]: > 25 µM
GI50 [18]: > 25 µM
TGI [18]: > 25000 nM
GI50 [19]: > 25 µM
TGI [19]: > 25 µM
GI50 [20]: > 25 µM
TGI [20]: > 25 µM
GI50 [21]: > 25 µM
TGI [21]: > 25 µM
GI50 [22]: > 25 µM
TGI [22]: > 25 µM
GI50 [23]: > 25 µM
TGI [23]: > 25 µM
GI50 [48]: > 25 µM
TGI [48]: > 25 µM
GI50 [49]: > 25 µM
TGI [49]: > 25 µM
GI50 [50]: > 25 µM
TGI [50]: > 25 µM
GI50 [24]: > 25 µM
TGI [24]: > 25 µM
GI50 [51]: > 25 µM
TGI [51]: > 25 µM
GI50 [52]: 16 µM
TGI [52]: > 25 µM
GI50 [25]: 1500 nM
TGI [25]: > 21.3 µM
GI50 [53]: > 25 µM
TGI [53]: > 25 µM
GI50 [26]: > 25 µM
TGI [26]: > 25 µM
GI50 [27]: > 25 µM
TGI [27]: > 25 µM
GI50 [54]: > 25 µM
TGI [54]: > 25 µM
GI50 [28]: > 15.8 µM
TGI [28]: > 25 µM
GI50 [55]: > 25 µM
TGI [55]: > 25 µM
GI50 [56]: > 25 µM
TGI [56]: > 25 µM
GI50 [57]: > 25 µM
TGI [57]: > 25 µM
GI50 [29]: > 25 µM
TGI [29]: > 25000 nM
GI50 [58]: > 25 µM
TGI [58]: > 25 µM
GI50 [30]: 5.17 µM
TGI [30]: > 25 µM
GI50 [59]: 240 nM
TGI [59]: > 25 µM
GI50 [31]: > 25 µM
TGI [31]: > 25 µM

From PubChem BioAssay (NCI)
